Assay results as given in patent publication US9278143B2, “Imaging agents, process for the preparation thereof and pharmaceutical compositions containing same” (CENTRE NATIONAL DE LA RECHERCHE SCIENTIFIQUE (CNRS), priority 2011, dated 2016).

Tests used:
[1] = system: A549, H460, HCT116, U87MG tumors; experiment: Tumor fixation kinetics and ex vivo biodistribution, results stated across the tumor models; format: in vivo, mouse
Method: (§1) In the right rear paw of Swiss nude mice (N=12), 1 to 2×10^6 tumor cells are inoculated subcutaneously, forming a group of 3 mice for each tumor cell line (A549 human lung adenocarcinoma model; H460 human lung carcinoma model; HCT116 human colorectal carcinoma model; U87MG human glioblastoma model).
(§2) When the tumors reach a volume of between 0.5 and 1 cm, the compound of Example 3 (200 μl) solubilized at 10 nmol/ml in phosphate buffer solution (PBS) is injected intravenously.
(§3) Under gas anesthesia, 5 acquisitions are carried out at various times of the experiment (2, 4, 6, 8 and 24 hours) using a Caliper IVIS Lumina II apparatus (ex=680 nm; em=720 nm). In parallel, blood samples are taken.
(§4) After the animals are euthanized by cervical dislocation, the organs (kidney, liver, spleen, lung, tumor, blood, muscle, heart, intestine) are taken and ex vivo acquisition is carried out (Lumina II: ex=680 nm; em=720 nm).

[2] = Plasma pharmacokinetics after intravenous injection; format: in vivo, mouse; parameters: distribution volume: unit not given here; conditions: female Swiss nude mice, 2 nmol/animal
Method: In female Swiss nude mice (N=18), the compound of Example 3 solubilized to 10 nmol/ml in 0.9% NaCl solution is injected intravenously (200 μl) into the caudal vein. Blood is collected at various times (5 and 30 minutes then 2, 4, 8 and 24 hours; 3 mice/sample time) and, after centrifugation, the supernatant plasma is transferred to heparinized tubes. The sample is then diluted in 50 μl of a 20 mM ammonium formate/acetonitrile/formic acid 50/50/0.1 buffer mixture to be analyzed by UPLC-MS/MS, ESI+.

[3] = system: U87MG (human glioblastoma) tumor cells; experiment: Interaction with tumor development, bioluminescence; format: in vivo
Method: In the right rear paw of Swiss nude mice (N=12), 3×10^6 U87MG (human glioblastoma) tumor cells are inoculated subcutaneously. When the tumor reaches a volume of 0.5 cm, luciferin (2 mg/mouse) is injected intraperitoneally in order to carry out bioluminescence acquisition and quantification at D0.
The animals are divided into 3 groups of 4 to form a control group with no injection; a group receiving a single intravenous injection of the compound of Example 3 (2 nmol in 200 μl); and a group receiving a weekly intravenous injection for 4 weeks of the compound of Example 3 (2 nmol in 200 μl). Lastly, bioluminescence acquisition and quantification are carried out 3 times per week after the intraperitoneal injection of luciferin.

[4] = system: A549 human lung adenocarcinoma model; experiment: Targeting of heterotopically-transplanted tumors, fluorescence imaging; format: in vivo, mouse; conditions: A549 xenograft in Swiss nude mice, 2 nmol i.v., t24h
Method: as §1, §2, §3, §4

[5] = system: HCT116 human colorectal carcinoma model; experiment: as above; format: in vivo, mouse; conditions: HCT116 xenograft in Swiss nude mice, 2 nmol i.v., t24h
Method: as §1, §2, §3, §4

[6] = system: U87MG human glioblastoma model; experiment: as above; format: in vivo, mouse; conditions: U87MG xenograft in Swiss nude mice, 2 nmol i.v., t24h
Method: as §1, §2, §3, §4

[7] = system: H460 human lung carcinoma model; experiment: as above; format: in vivo, mouse; conditions: H460 xenograft in Swiss nude mice, 2 nmol i.v., t24h
Method: as §1, §2, §3, §4

[8] = system: K-rasLA1 murine model spontaneously developing bronchioloalveolar carcinoma; experiment: Targeting of spontaneous tumors, ex vivo lung fluorescence; format: in vivo, mouse; conditions: K-rasLA1 mice, 200 μl at 10 nmol/ml i.v.
Method: On the K-rasLA1 murine model spontaneously developing bronchioloalveolar carcinoma, tumor development is controlled by X-ray scanner synchronized on respiration before injection of the product to be tested. The compound of Example 3 (200 μl) solubilized at 10 nmol/ml in phosphate buffer solution (PBS) is then injected intravenously.
After the animals are euthanized, the lungs are taken to be fixed by tracheal injection of neutral formalin. Acquisition of fluorescence ex vivo is carried out using a Caliper IVIS Lumina II apparatus (ex=680 nm; em=720 nm). A photograph of the excised lung is also taken.

distribution volume [2]: 1
half-life ([2]; mouse, plasma): 15 h
clearance ([2]; mouse, plasma, read-out: plasma clearance rate): 0.048 L/h/kg
SMILES: CC[N+]1=C(/C=C/C=C/C=C2/N(CCCCCC(=O)NCc3ccc4c(c3)Cc3cc(OCCCNc5cc(C)ccn5)ccc3CC4CC(=O)O)c3ccc4c(S(=O)(=O)O)cc(S(=O)(=O)O)cc4c3C2(C)C)C(C)(C)c2c1ccc1c(S(=O)(=O)O)cc(S(=O)(=O)O)cc21 (centres unmarked) [Example 3, Cy™ 5.5 Conjugate of the Compound of Preparation 1]
biodistribution in the principal organs ([1]; ex vivo, 24 hours after injection): high specificity of the probe for the tumor
signal of tumor volume relative to muscle tissue ([1]; ex vivo, 24 hours after injection, on average): 12 times
tumor/kidney ratio ([1]; ex vivo, t24h): 2
visibility of targeted tumors by fluorescence imaging ([1]; whatever cancer line, 2 nmol i.v., 24 hours post-injection): clearly visible
tumor growth by bioluminescence ([3]; U87MG in Swiss nude mice, control, single i.v. injection, or weekly i.v. injection for 4 weeks, 2 nmol): identical for the three groups
anti- or pro-angiogenic effect ([3]; single or multiple injections, 2 nmol/mouse): No anti- or pro-angiogenic effect is observed
tumor/healthy tissue ratio [4]: 2.3
tumor/healthy tissue ratio [5]: 2
tumor/healthy tissue ratio [6]: 3.5
tumor/healthy tissue ratio [7]: 1.66
targeting of neoplastic lesions formed in situ [8]: strong potential of targeting
